Patent publication US20240209061A1, “FUSION PROTEINS AND USES THEREOF” (Pfizer Inc., priority 2020, published 2024)

Experiments:
[1] = tested on: CT26 murine colorectal carcinoma cells; assay: CT26 colorectal carcinoma model, combination with αPD1 antibody; format: in vivo, mouse; conditions: for Day 13 tumor volume / % tumor growth inhibition: αPD1 Ab 10 mg/kg where combined; for % tumor growth inhibition: Day 13
Protocol: CT26 murine colorectal carcinoma cells (1×10^6) were subcutaneously implanted in the hind flank of female Balb/c mice. When tumors reached ˜100 mm3 (day 8 after implantation), mice were randomized and dosed with PBS vehicle control, 0.1 mg/kg CD80-D90Q-Fc, and/or 10 mg/kg murine αPD1 antibody. CD80-D90Q-Fc was dosed on Days 0 and 3, αPD1 antibody was dosed on Days 0, 3 and 6. Tumor volume was determined by caliper measurements obtained in 2 dimensions and calculated as width^2×length/2. Error bars are depicted as ±SEM
IFNγ ELIspot was used to measure tumor-reactive T cells in the spleen and TDLNs in mice treated with 1 mg/kg D90Q, αPD1 Ab, or the combination. […] The combination led to an even higher amount of tumor-reactive T cells in the TDLN compared to either agent alone.

human PBMCs (T cells) = assay: Co-stimulation of primary human T cells with CEFT peptide; format: cell-based
Protocol: Serial, 3-fold dilutions of CD80-K89D-D90K-T28V-T57V-Fc and CD80-WT-Fc were prepared in complete IMDM medium (10% FBS, 1% Pen/Strep). CEFT peptide (PM-CEFT, JPT Peptide Technologies) was reconstituted in the same medium to the final concentration of 1 μg/ml. Frozen human PBMCs were thawed following a standard protocol and 250,000 were seeded per well of flat bottom 96-wells plates. CEFT peptide and appropriate concentration of the CD80-Fc fusion proteins were added to the cell suspension. Plates were sealed with breathable plate sealers and incubated for 72 hours at 37° C. in a CO2 incubator. Six hours prior to cell harvest, culture supernatants were collected and stored at −20° C. until used for cytokine analysis by MSD (V-Plex pro-inflammatory panel human kit, Meso Scale Discovery). At the same time brefeldin A solution was added to the cells, to enable intracellular accumulation of cytokines for evaluation by flow cytometry. Upon harvest, cells were stained for surface (among others CD25) and intracellular markers (among others Ki-67 and IFNγ) following a standard flow cytometry staining protocol. Data was collected using BD LSR Fortessa and analyzed using FlowJo v10 software.

[2] = CD80-D90Q-Fc 1 mg/kg and/or αPD1 Ab, n=4 per group
[3] = CEFT peptide, compared with CD80-WT-Fc

Substance | Tumor-reactive T cells (IFNγ ELIspot), Spleen [1, 2] | Tumor-reactive T cells (IFNγ ELIspot), TDLN [1, 2] | Day 13 tumor volume ([1]; CD80-Fc dose 0.1 mg/kg) [mm^3] | Day 13 tumor volume ([1]; CD80-Fc dose 1 mg/kg) [mm^3] | % tumor growth inhibition ([1]; CD80-Fc dose 0.1 mg/kg) [%] | % tumor growth inhibition ([1]; CD80-Fc dose 1 mg/kg) [%] | increase in CD25 expression of CD8+ T cells (human PBMCs (T cells); [3]) [%] | increase in Ki-67 staining (proliferative capacity) of CD8+ T cells (human PBMCs (T cells); [3]) [%] | IFNγ production relative to CD80-WT-Fc (human PBMCs (T cells); MSD in cell supernatant) | % of IFNγ+CD8+ T cells relative to CD80-WT-Fc (human PBMCs (T cells); flow cytometry)
CD80-D90Q-Fc: variant CD80 ECD (D90Q) fused to human IgG1 Fc | 881.42 | 361.08 | 776.1 | 270.4 | 61.2 | 86.5 |  |  |  | 
CD80-K89D-D90K-T28V-T57V-Fc: non-cysteine stabilized variant CD80-Fc fusion protein (K89D, D90K, T28V, T57V) |  |  |  |  |  |  | ~30 | ~30 | enhanced IFNγ production | higher % of IFNγ+CD8+ T cells
